Source: patent US20230123334A1, “AMINO LIPID COMPOUND, PREPARATION METHOD THEREFOR, AND APPLICATION THEREOF” (SHENZHEN SHENXIN BIOTECHNOLOGY CO., LTD., priority 2020, published 2023)

Tests used:
BALB/c mice = test: In vivo delivery of luciferase mRNA (Fluc mRNA) by lipid nanoparticles, in vivo imaging; conditions: 0.5 mg/kg Fluc mRNA, after 12 hours
Method: The amino lipid compound of the invention was mixed with DOPE, cholesterol and PEG2000-DMG in a molar ratio of 45:10:42.5:2.5, and dissolved in absolute ethanol such that the molar concentration of the amino lipid compound was 0.001-0.01 mmol/L. By using a microinjection pump, the resultant ethanol solution and a sodium acetate solution (50 mM, pH=4.0) in which luciferase mRNA (Fluc mRNA, TriLink) was dissolved were mixed in a volume ratio of 1:3 in a microchannel chip to prepare a crude solution of lipid nanoparticles, which was then dialyzed in 1×PBS at a controlled temperature of 4° C. for 6 h using a dialysis box (Fisher, MWCO 20,000) and filtered through a 0.22 μm microporous filter membrane before use. The mass ratio of the amino lipid compound to Fluc mRNA was about 10:1. The resultant solution of lipid nanoparticles (LNPs) was administered to the tested animals by subcutaneous administration.
The preparation method was the same as Formulation method 1, except that amino lipid compound, DSPC, cholesterol and PEG2000-DMG were used in a molar ratio of 50:10:38.5: 1.5. The resultant solution of lipid nanoparticles (LNPs) was administered to the tested animals by tail vein and intramuscular injection.
Animal Preparation: 6-week aged female BALB/c mice weighed about 20 g were selected and fed in a SPF-grade feeding room. Animal tests were conducted strictly according to the guidelines of national health institutions and the requirements of animal ethics.
In vivo delivery: 9 mice were assigned randomly to each group, and the lipid nanoparticle solution was injected by three routes of administration, i.e., subcutaneous, intramuscular and tail vein injection at a dosage of 0.5 mg/kg Fluc mRNA (3 mice for each route of administration). After 12 hours, 200 μL of 10 mg/mL potassium salt of […] (PerkinElmer) was injected into each mouse through the tail vein. After 10 min, the mice were placed under an in vivo imaging system (IVIS-200, Xenogen) to observe the total fluorescence intensity of each mouse and take photographs for record. The expression intensity of Fluc mRNA delivered by representative amino lipid compounds through the three routes of administration are shown in Table 5-7. DLin-MC3 was used as control.

HEK293 cells [1] = test: Preliminary screening as DNA vectors, GFP transfection of HEK293 cells; format: cell-based; conditions: HEK293 cells; lipid/DOPE liposome with 75 ng plasmid DNA (psin-EGFP-IRES-Puro); number of cells expressing GFP divided by total number of nuclei (Hoechst)
Outline: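 Lipid + DOPE liposomes (NaOAc, pH 5.6) complexed w/ 75 ng psin-EGFP-IRES-Puro, 30 min RT; added to 3-5×10^4 HEK293/well, 37° C. Hoechst 0.2 μg/mL at 20-24 h, imaged after further 20-24 h. Efficiency = GFP+ cells / total nuclei.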

HEK293 cells [2] = test: Preliminary screening as mRNA vectors, EGFP mRNA transfection of HEK293 cells; format: cell-based; conditions: HEK293 cells, 96-well plates, EGFP mRNA 50 ng per well; percentage of GFP fluorescent cells relative to total number of cells (Hoechst)
Outline: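 Each well of HEK293 cells received 50 ng of EGFP mRNA. Efficiency was expressed as percent GFP-expressing cells over Hoechst-defined total cell number.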

Hela cells [3] = test: Transfection of Hela cell line, DNA vectors; format: cell-based; conditions: 75 ng plasmid DNA, GFP cells / total cells
Outline: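 Amino lipid/DOPE liposomes in sodium acetate pH 5.6 were complexed with 75 ng psin-EGFP-IRES-Puro plasmid for 30 min at room temperature, then mixed with 3-5×10^4 Hela cells in DMEM/10% FBS at 37° C. Hoechst stain after 20-24 h, imaging after a further 20-24 h. Efficiency = GFP-positive cells / total nuclei.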

Hela cells [4] = test: Transfection of Hela cell line, mRNA vectors; format: cell-based; conditions: 50 ng EGFP mRNA per well
Outline: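 HeLa cells in DMEM with 10% FBS transfected with 50 ng EGFP mRNA per well. Readout is percentage of GFP-positive cells among total cells counted by Hoechst nuclear stain; Lipofectamine2000 served as positive control.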

MCF7 cells [5] = test: Transfection of MCF7 cell line, DNA vectors; format: cell-based; parameters: concentration or dose not given beside the values; conditions: plasmid DNA, GFP cells / total cells
Outline: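 MCF7 cells in DMEM with fetal bovine serum were transfected in 96-well format. Read-out was the percentage of GFP-fluorescent cells among total cells counted by Hoechst nuclear stain. Lipofectamine2000 served as positive control.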

MCF7 cells [6] = test: Transfection of MCF7 cell line, mRNA vectors; format: cell-based; conditions: 50 ng EGFP mRNA per well
Outline: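 MCF7 cells in DMEM with fetal bovine serum were transfected with 50 ng EGFP mRNA per well. Read-out was the percentage of GFP-positive cells among total Hoechst-stained nuclei, with Lipofectamine2000 as positive control.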

[7] = system: embryonic stem cells (hESC2); test: Screening as DNA vectors in embryonic stem cells, flow cytometry; format: cell-based; conditions: 75 ng plasmid DNA, 48 hours after transfection, flow cytometer
Outline: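 hESC2 cells in mTeSR1 on matrigel transfected with 75 ng pSin-EGFP-IRES-Puro complexed with amino lipid/DOPE liposomes formed in sodium acetate pH 5.6; 37 °C, 5% CO2. After 48 h, GFP-positive cells counted by flow cytometry (≥2000 cells), efficiency also expressed relative to Lipofectamine Stem.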

[8] = system: embryonic stem cells (hESC2); test: Screening as mRNA vectors in embryonic stem cells; format: cell-based; conditions: 50 ng EGFP mRNA per well
Outline: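 EGFP mRNA (50 ng per well) transfected into hESC2 cells grown in mTeSR1; Lipofectamine Stem served as positive control. Read-out: GFP-fluorescent cells as percentage of total cells.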

cardiomyocytes [9] = test: Screening as DNA vectors in cardiomyocytes; format: cell-based; parameters: concentration or dose not given beside the values; conditions: method as Example 4
Outline: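 hESC-derived cardiomyocytes in DMEM with 10% FBS were transfected with a GFP DNA vector; Lipofectamine Stem served as positive control. Read-out: percentage of GFP-positive cells relative to total cells counted by Hoechst nuclear stain.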

cardiomyocytes [10] = test: Screening as mRNA vectors in cardiomyocytes; format: cell-based; conditions: 50 ng EGFP mRNA per well
Outline: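 Cardiomyocytes differentiated from hESC, in DMEM with 10% FBS, were transfected with 50 ng EGFP mRNA per well. The read-out was GFP-positive cells as a percentage of Hoechst-stained nuclei, with Lipofectamine Stem as positive control.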

| Structure (SMILES) | Fluorescence intensity (expression intensity of Fluc mRNA) (BALB/c mice; intramuscular administration) | Fluorescence intensity (expression intensity of Fluc mRNA) (BALB/c mice; subcutaneous administration) | Fluorescence intensity (expression intensity of Fluc mRNA) (BALB/c mice; tail vein administration) | Absolute DNA transfection efficiency in HEK293 cells (HEK293 cells [1]) [%] | Absolute mRNA transfection efficiency in HEK293 cells (HEK293 cells [2]) [%] | Absolute DNA transfection efficiency in Hela cells (Hela cells [3]) [%] | Absolute mRNA transfection efficiency in Hela cells (Hela cells [4]) [%] | Absolute DNA transfection efficiency in MCF7 cells (MCF7 cells [5]) [%] | Absolute mRNA transfection efficiency in MCF7 cells (MCF7 cells [6]) [%] | Absolute DNA transfection efficiency in embryonic stem cells [7] [%] | Absolute mRNA transfection efficiency in embryonic stem cells [8] [%] | Absolute DNA transfection efficiency in cardiomyocytes (cardiomyocytes [9]) [%] | Absolute mRNA transfection efficiency in cardiomyocytes (cardiomyocytes [10]) [%] |
| --- | --- | --- | --- | --- | --- | --- | --- | --- | --- | --- | --- | --- | --- |
| CCCCC/C=C\C/C=C\CCCCCCCCC(CCCCCCCC/C=C\C/C=C\CCCCC)OC(=O)CCCN(C)C [DLin-MC3, reference compound] | 2.7E+07 | 3.1E+06 | 2.7E+07 |  |  |  |  |  |  |  |  |  |  |
| CCCCCCCCCCCCCCCSc1nc(NCCCN(C)C)nc(SCCCCCCCCC)n1 [Compound S9S15D6] |  |  |  | 47.4 | 87.2 | 23.7 | 23.7 | 48.4 | 47.3 | 3.7 | 2.5 | 6.9 | 12.9 |
| CCCCCCCCCCCCCCCSc1nc(NCCCN2CCOCC2)nc(SCCCCCCCCC)n1 [Compound S9S15D8] |  |  |  | 22.2 | 5.4 | 11.1 | 11.1 | 3.0 | 13.5 | 1.9 | 0.4 | 2.0 | 0.6 |
| CCCCCCCCCCCCCCCSc1nc(NCC2CCN(C)CC2)nc(SCCCCCCCCC)n1 [Compound S9S15D10] |  |  |  | 56.1 | 94.8 | 28.7 | 28.7 | 58.8 | 49.4 | 16.8 | 23.0 | 24.8 | 4.3 |
| CCCCCCCCCCCCCCCSc1nc(NCCN2CCCC2)nc(SCCCCCCCCC)n1 [Compound S9S15D3] |  |  |  | 2.5 | 2.5 | 1.4 | 1.4 | 1.4 | 1.1 | 1.8 | 9.2 | 0.3 | 6.6 |
| CCCCCCCCCCCCCCSc1nc(NCCCN2CCOCC2)nc(SCCCCCCCCC)n1 [Compound S9S14D8] |  |  |  | 21.0 | 11.6 | 10.8 | 10.8 | 6.4 | 14.8 | 0.7 | 0.3 | 6.1 | 1.0 |
| CCCCCCCCCCCCCCCSc1nc(NCCCN2CCN(C)CC2)nc(SCCCCCCCCC)n1 [Compound S9S15D9] |  |  |  | 25.3 | 40.4 | 12.6 | 12.6 | 22.5 | 27.6 | 21.6 | 13.3 | 1.3 | 7.1 |
| CCCCCCCCCCCCCCCSc1nc(NCCN2CCN(C)CC2)nc(SCCCCCCCCC)n1 [Compound S9S15D5] |  |  |  | 8.9 | 41.3 | 4.4 | 4.4 | 23.0 | 27.0 | 6.2 | 33.4 | 12.8 | 1.9 |
| CCCCCCCCCCCCCCSc1nc(NCCCN(C)C)nc(SCCCCCCCCC)n1 [Compound S9S14D6] |  |  |  | 19.2 | 80.0 | 9.6 | 9.6 | 44.4 | 12.2 | 2.0 | 1.7 | 10.5 | 8.5 |
| CCCCCCCCCCCCSc1nc(NCCN2CCCC2)nc(SCCCCCCCCC)n1 [Compound S9S12D3] |  |  |  | 4.9 | 5.3 | 2.4 | 2.4 | 3.0 | 6.5 | 5.3 | 21.4 | 2.7 | 65.7 |
